Source: patent US12060347B2 (BRISTOL-MYERS SQUIBB COMPANY, priority 2016, dated 2024)
pIC50: −log10 of the molar value.

Target: T1, human PAR4 (Homo sapiens, UniProt Q96RI0)
T1 construct: expressed in transfected cells; host or cells: HEK293 PAR4 Clone 1.2A (BMS Arctic ID 383940)
T1 sequence (Q96RI0 18-385): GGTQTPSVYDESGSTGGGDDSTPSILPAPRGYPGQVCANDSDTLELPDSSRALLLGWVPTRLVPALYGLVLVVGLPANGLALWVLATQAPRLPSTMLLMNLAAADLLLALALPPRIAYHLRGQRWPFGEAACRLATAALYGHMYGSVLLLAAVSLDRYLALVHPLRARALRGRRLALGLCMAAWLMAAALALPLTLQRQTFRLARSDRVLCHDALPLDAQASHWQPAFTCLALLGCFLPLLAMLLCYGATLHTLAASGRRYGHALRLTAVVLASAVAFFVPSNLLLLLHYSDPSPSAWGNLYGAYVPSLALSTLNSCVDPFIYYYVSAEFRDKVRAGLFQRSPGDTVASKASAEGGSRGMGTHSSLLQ
Test: PAR4 FLIPR assay: antagonism of agonist-peptide-induced calcium mobilization in PAR4-expressing HEK293 cells
Format: cell-based
Conditions: H-Ala-Phe(4-F)-[…]NH2-induced intracellular calcium mobilization, 11-point curves

Compound	pIC50
COc1cnc2c(-c3nc4cc(F)c(O[C@@H](C)[C@@H](C)OC(=O)Nc5cnc(C(=O)NCCC(C)(C)O)nc5)cc4s3)cc(C)cc2n1 [Example 458, (2R,3S)-3-((5-fluoro-2-(2-methoxy-7-methylquinoxalin-5-yl)benzo[d]thiazol-6-yl)oxy)butan-2-yl (2-((3-hydroxy-3-methylbutyl)carbamoyl)pyrimidin-5-yl)carbamate]	9.30
COc1cnc2c(-c3nc4cc(F)c(OC[C@@H](C)OC(=O)Nc5ccc(C(=O)N6CC[C@H](O)C6)nc5)cc4s3)cc(C)cc2n1 [Example 478, (R)-1-((5-fluoro-2-(2-methoxy-7-methylquinoxalin-5-yl)benzo[d]thiazol-6-yl)oxy)propan-2-yl (6-((S)-3-hydroxypyrrolidine-1-carbonyl)pyridin-3-yl)carbamate]	8.04
COc1cnc2c(-c3nc4cc(F)c(OC[C@@H](C)OC(=O)Nc5ccc(C(=O)N6CCO[C@@H](CO)C6)nc5)cc4s3)cc(C)cc2n1 [Example 480, (R)-1-((5-fluoro-2-(2-methoxy-7-methylquinoxalin-5-yl)benzo[d]thiazol-6-yl)oxy)propan-2-yl (6-((R)-2-(hydroxymethyl)morpholine-4-carbonyl)pyridin-3-yl)carbamate]	8.47
COc1cnc2c(-c3nc4cc(F)c(O[C@@H](C)[C@@H](C)OC(=O)Nc5cncc(C#N)c5)cc4s3)cc(C)cc2n1 [Example 421, (2R,3S)-3-((5-fluoro-2-(2-methoxy-7-methylquinoxalin-5-yl)benzo[d]thiazol-6-yl)oxy)butan-2-yl (5-cyanopyridin-3-yl)carbamate]	8.74
COc1cnc2c(-c3nc4cc(F)c(O[C@@H](C)[C@@H](C)OC(=O)Nc5ccnc(OC[C@@H](C)O)c5)cc4s3)cc(C)cc2n1 [Example 550, (2R,3S)-3-((5-fluoro-2-(2-methoxy-7-methylquinoxalin-5-yl)benzo[d]thiazol-6-yl)oxy)butan-2-yl (2-((R)-2-hydroxypropoxy)pyridin-4-yl)carbamate]	9.40
COc1ccc(NC(=O)OCCOc2cc(C)c3nc(-c4cc(C)cc5nc(OC)cnc45)sc3c2)cn1 [Example 112, 2-(2-(2-methoxy-7-methylquinoxalin-5-yl)-4-methylbenzo[d]thiazol-6-yloxy)ethyl 6-methoxypyridin-3-ylcarbamate]	8.70
COc1cnc2c(-c3nc4c(C)cc(OCc5cnc(-c6ccccc6)[nH]5)cc4s3)cc(C)cc2n1 [Example 35, 2-(2-methoxy-7-methylquinoxalin-5-yl)-4-methyl-6-((2-phenyl-1H-imidazol-5-yl)methoxy)benzo[d]thiazole]	7.27
COc1cnc2c(-c3nc4ccc(OC)nc4s3)cc(C)cc2n1 [Example 150, 5-methoxy-2-(2-methoxy-7-methylquinoxalin-5-yl)thiazolo[5,4-b]pyridine]	7.03
COCc1cnc2c(-c3nc4cc(O)c(OC)cc4s3)cc(C)cc2n1 [Example 310, 6-methoxy-2-(2-(methoxymethyl)-7-methylquinoxalin-5-yl)benzo[d]thiazol-5-ol]	8.04
CCc1cnc2c(-c3nc4cc(F)c(O[C@@H](C)[C@@H](C)OC(=O)Nc5cnc(C)nc5)cc4s3)cc(Cl)cc2c1 [Example 647, (2R,3S)-3-((2-(6-chloro-3-ethylquinolin-8-yl)-5-fluorobenzo[d]thiazol-6-yl)oxy)butan-2-yl(2-methylpyrimidin-5-yl)carbamate]	7.72
COCc1cnc2c(-c3nc4c(C(C)O)c(C)c(OC)cc4s3)cc(C)cc2n1 (stereo not drawn) [Example 326, 1-(6-methoxy-2-(2-(methoxymethyl)-7-methylquinoxalin-5-yl)-5-methylbenzo[d]thiazol-4-yl)ethanol]	8.96
COc1cnc2c(-c3nc4cc(F)c(O[C@@H](C)[C@@H](C)OC(=O)Nc5ccc(C(=O)N(C)C)nc5)cc4s3)cc(Cl)cc2n1 [Example 834, (2R,3S)-3-((2-(7-chloro-2-methoxyquinoxalin-5-yl)-5-fluorobenzo[d]thiazol-6-yl)oxy)butan-2-yl (6-(dimethylcarbamoyl)pyridin-3-yl)carbamate]	8.52
COc1cncc(NC(=O)O[C@H](C)[C@H](C)Oc2cc3sc(-c4cc(Cl)cc5cc(OC)cnc45)nc3cc2F)c1 [Example 785, (2R,3S)-3-((2-(6-chloro-3-methoxyquinolin-8-yl)-5-fluorobenzo[d]thiazol-6-yl)oxy)butan-2-yl (5-methoxypyridin-3-yl)carbamate]	8.46
COCc1cnc2c(-c3nc4c(C)c(C)c(OCC(C)(C)O)cc4s3)cc(C)cc2n1 [Example 319, 1-((2-(2-(methoxymethyl)-7-methylquinoxalin-5-yl)-4,5-dimethylbenzo[d]thiazol-6-yl)oxy)-2-methylpropan-2-ol]	8.14

Further lines, results first:

pIC50	Compound
8.82	COc1cnc2c(-c3nc4cc(F)c(OC[C@@H](C)OC(=O)Nc5cnc(O[C@@H](C)CO)nc5)cc4s3)cc(C)cc2n1 [Example 558, (R)-1-((5-fluoro-2-(2-methoxy-7-methylquinoxalin-5-yl)benzo[d]thiazol-6-yl)oxy)propan-2-yl (2-(((S)-1-hydroxypropan-2-yl)oxy)pyrimidin-5-yl)carbamate]
7.82	COc1cnc2c(-c3nc4cc(F)c(OC[C@@H](C)OC(=O)Nc5ccnc(CO)c5)cc4s3)cc(C)cc2n1 [Example 495, (R)-1-((5-fluoro-2-(2-methoxy-7-methylquinoxalin-5-yl)benzo[d]thiazol-6-yl)oxy)propan-2-yl (2-(hydroxymethyl)pyridin-4-yl)carbamate]
8.09	COc1cnc2c(-c3nc4c(C)cc(OC[C@@H](C)OC(=O)Nc5cnc(C)nc5)nc4s3)cc(C)cc2n1 [Example 737, (R)-1-((2-(2-methoxy-7-methylquinoxalin-5-yl)-7-methylthiazolo[5,4-b]pyridin-5-yl)oxy) propan-2-yl (2-methylpyrimidin-5-yl)carbamate]
8.77	COc1cnc2c(-c3nc4cc(F)c(O[C@@H](C)[C@@H](C)OC(=O)Nc5cnc(CO)nc5)nc4s3)cc(C)cc2n1 [Example 764, (2R,3S)-3-((6-fluoro-2-(2-methoxy-7-methylquinoxalin-5-yl)thiazolo[5,4-b]pyridin-5-yl)oxy)butan-2-yl (2-(hydroxymethyl)pyrimidin-5-yl)carbamate]
8.59	COc1cnc2c(-c3nc4cc(F)c(OC[C@@H](C)OC(=O)Nc5ccnc(CCO)c5)nc4s3)cc(C)cc2n1 [Example 696, (R)-1-((6-fluoro-2-(2-methoxy-7-methylquinoxalin-5-yl)thiazolo[5,4-b]pyridin-5-yl)oxy) propan-2-yl (2-(2-hydroxyethyl)pyridin-4-yl)carbamate]
8.74	COc1cnc2c(-c3nc4c(Cl)c(F)c(OC[C@@H](C)OC(=O)Nc5ccc(C#N)nc5)cc4s3)cc(C)cc2n1 [Example 371, (R)-1-((4-chloro-5-fluoro-2-(2-methoxy-7-methylquinoxalin-5-yl)benzo[d]thiazol-6-yl)oxy)propan-2-yl (6-cyanopyridin-3-yl)carbamate]
8.57	COc1cnc2c(-c3nc4c(Cl)c(F)c(OC[C@@H](C)OC(=O)Nc5cnc(Cl)nc5)cc4s3)cc(C)cc2n1 [Example 401, (R)-1-((4-chloro-5-fluoro-2-(2-methoxy-7-methylquinoxalin-5-yl)benzo[d]thiazol-6-yl)oxy)propan-2-yl (2-chloropyrimidin-5-yl)carbamate]
8.68	COc1cnc2c(-c3nc4cc(F)c(OC[C@@H](C)OC(=O)Nc5cncc(CO)c5)cc4s3)cc(C)cc2n1 [Example 611, (R)-1-((5-fluoro-2-(2-methoxy-7-methylquinoxalin-5-yl)benzo[d]thiazol-6-yl)oxy)propan-2-yl (5-(hydroxymethyl)pyridin-3-yl)carbamate]
8.15	CCCc1ncc(NC(=O)O[C@H](C)[C@H](C)Oc2cc3sc(-c4cc(C)cc5nc(OC)cnc45)nc3cc2F)cn1 [Example 414, (2R,3S)-3-((5-fluoro-2-(2-methoxy-7-methylquinoxalin-5-yl)benzo[d]thiazol-6-yl)oxy)butan-2-yl (2-propylpyrimidin-5-yl)carbamate]
8.96	COc1cnc2c(-c3nc4c(Cl)c(F)c(OC)cc4s3)cc(C)cc2n1 [Example 282, 4-chloro-5-fluoro-6-methoxy-2-(2-methoxy-7-methylquinoxalin-5-yl)benzo[d]thiazole]

Target: T2, protease-activated receptor type 4 (PAR4) (Homo sapiens, UniProt Q96RI0)
T2 sequence (Q96RI0 18-385): T1 sequence (Q96RI0 18-385)
Test: not given
Conditions: abstract of Lee et al. 2001; cited from earlier work

Compound	inhibition of PAR4-dependent platelet activation
CCOC(=O)c1ccc(-c2nn(Cc3ccccc3)c3ccccc23)cc1 [YD-3, ethyl 4-(1-benzyl-1H-indazol-3-yl)benzoate]	selective and potent inhibitor

Target: T3, PAR1 (Homo sapiens, UniProt P25116)
T3 sequence (P25116 22-425): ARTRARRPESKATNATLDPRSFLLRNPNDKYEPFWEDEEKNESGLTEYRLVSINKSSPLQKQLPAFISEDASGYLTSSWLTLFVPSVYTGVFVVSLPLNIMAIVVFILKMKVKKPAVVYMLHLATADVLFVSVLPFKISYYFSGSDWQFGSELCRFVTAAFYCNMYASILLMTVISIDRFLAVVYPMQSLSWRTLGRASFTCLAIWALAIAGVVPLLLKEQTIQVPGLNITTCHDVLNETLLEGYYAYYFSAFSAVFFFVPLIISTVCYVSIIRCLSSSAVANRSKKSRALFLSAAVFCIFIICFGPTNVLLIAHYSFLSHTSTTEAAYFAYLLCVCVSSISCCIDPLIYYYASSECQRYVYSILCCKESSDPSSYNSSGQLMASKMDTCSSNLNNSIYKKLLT
Test: not given
Conditions: ACS patients, TRACER phase III trial; cited from earlier work

Compound	cardiovascular events	risk of major bleeding
CCOC(=O)N[C@@H]1CC[C@@H]2[C@@H](C1)C[C@H]1C(=O)O[C@H](C)[C@H]1[C@H]2/C=C/c1ccc(-c2cccc(F)c2)cn1 [vorapaxar]	did not significantly reduce	significantly increased
